{
  "source": "patent US20180208920A1",
  "about": "“MOLECULAR MACHINES” (Commonwealth Scientific and Industrial Research Organisation, priority 2015, published 2018)",
  "key": {"[1]": {"target": "T1, EcG3PD2 (Escherichia coli, UniProt P0A6S7)", "T1 construct": "His tag; made in house; host or cells: E. coli BL21AI or BL21DE3*", "T1 sequence (P0A6S7 1-339)": "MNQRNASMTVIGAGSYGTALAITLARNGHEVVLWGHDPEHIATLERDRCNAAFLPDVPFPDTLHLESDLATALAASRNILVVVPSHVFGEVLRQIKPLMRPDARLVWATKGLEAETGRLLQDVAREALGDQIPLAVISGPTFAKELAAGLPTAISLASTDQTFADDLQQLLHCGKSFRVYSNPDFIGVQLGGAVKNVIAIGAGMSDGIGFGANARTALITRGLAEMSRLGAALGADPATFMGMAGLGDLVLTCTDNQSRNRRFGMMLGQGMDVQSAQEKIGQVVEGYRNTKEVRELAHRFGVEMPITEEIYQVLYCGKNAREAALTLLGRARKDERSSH", "assay": "Kinetics of glycerol-3-phosphate dehydrogenase with modified cofactor", "type": "biochemical, E. coli", "settings": "EcG3PD, full kinetic analysis", "experimental": "(§1) The relative enzyme activity for the NAD-dependant glycerol-3-phosphate dehydrogenase enzymes identified for DHAP synthesis was assessed with the modified N^6-2AE-NAD. Kinetic data for EcG3PD and CaNOX was also obtained. To determine the relative activities and kinetic enzyme efficiency, modified N^6-2AE-NAD was reduced enzymatically, separated from enzymes using ultrafiltration and the amount of N^6-2AE-NADH calculated based on the absorbance A340nm.\n(§2) Glycerol-3-phosphate dehydrogenase assays were conducted essentially as described by (Sakasegawa et al., 2004). Kinetics were determined by varying the concentrations of NAD/NADP or glycerol-3-phosphate, whilst maintaining the other components in excess, and kinetic determinants were calculated using Hyper (J. S. Easterby, Liverpool University). Substrate and cofactor concentrations ranged from 0.1 to 10×Km."}, "[2]": {"assay": "Batch reactions converting glycerol to G3P and DHAP", "type": "biochemical", "experimental": "Reactions were conducted at room temperature in 1 mL total volume with 10 mM glycerol as starting substrate, between 1 and 14 nM of enzyme and 100 μM each of ATP and NAD. Samples were collected at various time points and analysed by LCMS (SIM monitoring for G3P and DHAP).\nG3P and DHAP were separated using a modification of the method described in Prieto-Blanc et al., (2010). Chromatographic conditions were SIELC ObeliscN column (250 mm) with 50% mobile phase A, 50% mobile phase B for 30 minutes. Mobile phase A: 0.1% formic acid; mobile phase b: methanol with 0.1% acetic acid. Mass spectrophotometric detection was conducted using API-ES mode with an Agilent 6120 Quadroploe LCMS. Glycerol-3-phosphate was quantified by selected ion monitoring of ion 171, DHAP quantified by selected ion monitoring of ion 169, the three aldol condensation products fructose-1,6-biphosphate, “AP” and “XP” were quantified by selected ion monitoring of […]."}, "[3]": {"test_system": "CaNOX::AaE2", "type": "biochemical, Alicyclobacillus acidophilus", "settings": "after 5 min incubation with inhibitor on ice"}, "[4]": {"test_system": "EcG3PD::CaNOX::AaE2 (TriF2)", "type": "biochemical, Alicyclobacillus acidophilus", "settings": "after 5 min incubation with inhibitor on ice"}, "[5]": {"test_system": "CaNOX", "assay": "Kinetics of NADH oxidase (NOX) with modified cofactor", "type": "biochemical, Clostridium aminoverlaricum", "settings": "for Kcat / Km: cofactor as substrate of CaNOX", "experimental": "as §1"}, "[6]": {"substrate": "NCCNc1ncnc2c1ncn2[C@H]1O[C@@H](COP(=O)(O)OP(=O)(O)OC[C@H]2O[C@@H]([n+]3cccc(C(N)=O)c3)C(O)C2O)C(O)C1O", "assay": "Kinetics of glycerol-3-phosphate dehydrogenase with modified cofactor", "type": "biochemical, E. coli", "settings": "other: cofactor as substrate of EcG3PD2", "experimental": "as §1, §2"}, "[7]": {"substrate": "NC(=O)c1ccc[n+]([C@@H]2O[C@H](COP(=O)([O-])OP(=O)(O)OC[C@H]3O[C@@H](n4cnc5c(N)ncnc54)[C@H](O)[C@@H]3O)[C@@H](O)[C@H]2O)c1", "assay": "Kinetics of glycerol-3-phosphate dehydrogenase with modified cofactor", "type": "biochemical, E. coli", "settings": "other: cofactor as substrate of EcG3PD2", "experimental": "as §1, §2"}},
  "data": [
    {"molecule": "NCCNc1ncnc2c1ncn2[C@H]1O[C@@H](COP(=O)(O)OP(=O)(O)OC[C@H]2O[C@@H]([n+]3cccc(C(N)=O)c3)C(O)C2O)C(O)C1O", "note": "(some centres unmarked) [N^6-2AE-NAD, N^6-(2-aminoethyl)-NAD^+]", "values": [
      {"measurement": "activity retained with the modified cofactor compared with unmodified NAD", "setting": "[1]", "value": 78, "unit": "%"}
    ]},
    {"molecule": "Nc1ncnc2c1ncn2[C@@H]1O[C@H](COP(=O)(O)OP(=O)(O)OP(=O)(O)O)[C@@H](O)[C@H]1O", "note": "[ATP, adenosine triphosphate]", "values": [
      {"measurement": "turnover of ATP per hour", "setting": "[2]; BiF1 plus BiF2 batch reaction", "value": "~40", "unit": "h⁻¹"},
      {"measurement": "turnovers of ATP per batch reaction", "setting": "[2]; BiF1 plus BiF2 batch, 90 mM conversion of glycerol from 0.1 mM ATP starting concentration", "value": "~200"},
      {"measurement": "turnovers of ATP per batch reaction", "setting": "[2]; TriF1 plus TriF2 batch, 4.5 mM conversion of glycerol from 0.01 mM ATP starting concentration", "value": "~450"}
    ]},
    {"molecule": "CCCCCCSCC(=O)C(F)(F)F", "note": "[1,1,1-trifluoro-3-(thiohexyl)propan-2-one]", "values": [
      {"measurement": "residual esterase activity", "setting": "[3]", "value": "completely abolished"},
      {"measurement": "residual esterase activity", "setting": "[4]", "value": "completely abolished"}
    ]},
    {"molecule": "NC(=O)C1=CN([C@@H]2O[C@H](COP(=O)(O)OP(=O)(O)OC[C@H]3O[C@@H](n4cnc5c(N)ncnc54)[C@H](O)[C@@H]3O)[C@@H](O)[C@H]2O)C=CC1", "note": "[NADH]", "values": [
      {"measurement": "Kcat", "setting": "[5]", "value": "1204 ± 67.5", "unit": "s⁻¹"},
      {"measurement": "Km", "setting": "[5]", "value": "204 ± 15.4", "unit": "µM"}
    ]},
    {"molecule": "NCCNc1ncnc2c1ncn2[C@@H]1O[C@H](COP(=O)(O)OP(=O)(O)OC[C@H]2O[C@@H](N3C=CCC(C(N)=O)=C3)[C@H](O)[C@@H]2O)[C@@H](O)[C@H]1O", "note": "[N^6-2AE-NADH]", "values": [
      {"measurement": "catalytic efficiency compared to NADH as substrate", "setting": "[5]; NOX1 (CaNOX)", "value": "reduction in the catalytic efficiency"},
      {"measurement": "Kcat", "setting": "[5]", "value": "343 ± 32.6", "unit": "s⁻¹"},
      {"measurement": "Km", "setting": "[5]", "value": "215 ± 27.2", "unit": "µM"}
    ]},
    {"molecule": "EcG3PD2 (Escherichia coli K-12) (protein, His tag; made in house; host or cells: E. coli BL21AI or BL21DE3*) MNQRNASMTVIGAGSYGTALAITLARNGHEVVLWGHDPEHIATLERDRCNAAFLPDVPFPDTLHLESDLATALAASRNILVVVPSHVFGEVLRQIKPLMRPDARLVWATKGLEAETGRLLQDVAREALGDQIPLAVISGPTFAKELAAGLPTAISLASTDQTFADDLQQLLHCGKSFRVYSNPDFIGVQLGGAVKNVIAIGAGMSDGIGFGANARTALITRGLAEMSRLGAALGADPATFMGMAGLGDLVLTCTDNQSRNRRFGMMLGQGMDVQSAQEKIGQVVEGYRNTKEVRELAHRFGVEMPITEEIYQVLYCGKNAREAALTLLGRARKDERSSH", "values": [
      {"measurement": "Km", "setting": "[6]", "value": "181.2 ± 37.5", "unit": "µM"},
      {"measurement": "kcat", "setting": "[6]", "value": "63.5 ± 9.4", "unit": "s⁻¹"},
      {"measurement": "kcat/Km", "setting": "[6]", "value": 350000, "unit": "M⁻¹ s⁻¹"},
      {"measurement": "Km", "setting": "[7]", "value": "147.1 ± 25.4", "unit": "µM"},
      {"measurement": "kcat", "setting": "[7]", "value": "66.7 ± 10.6", "unit": "s⁻¹"},
      {"measurement": "kcat/Km", "setting": "[7]", "value": 450000, "unit": "M⁻¹ s⁻¹"}
    ]}
  ]
}
